Source: ChEMBL document CHEMBL5344413, “Discovery of 4-(1,2,4-Oxadiazol-5-yl)azepan-2-one Derivatives as a New Class of Cannabinoid Type 2 Receptor Agonists for the Treatment of Inflammatory Pain” (J Med Chem, 2023)
Calls of active or inactive are those of the source.

Experiments:
[1] = Oral bioavailability in BALB/c mouse at 5 mg/kg; format: ADME, organism-based; settings: in vivo
[2] = Toxicity against C57BL/6 mouse assessed as change in body temperature at 20 mg/kg, ip measured within 4 hrs by thermometer analysis; format: organism-based; settings: in vivo
[3] = Protein binding in human plasma by dialysis method; format: ADME, cell-free; settings: read-out: PPB (converted)
[4] = Intrinsic clearance in rat liver microsomes at 10 uM measured per mg protein; format: ADME, Microsome; settings: read-out: CLH
[5] = Cmax in BALB/c mouse at 5 mg/kg, po; format: ADME, organism-based; set-up: dose 5 mg/kg, route po; settings: in vivo
Mus musculus [6] = assay: (§1) Antinociceptive activity against carrageenan-induced inflammatory C57BL/6 mouse model assessed as reduction in hyperalgesia by measuring increase in paw withdrawal threshold at 20 mg/kg, ip administered with CB2 receptor antagonist, AM630 at 10 mins prior to drug challenge and measured at 5 hrs and 2 hrs following carrageenan and compound challenge respectively by plantar esthesiometer analysis; format: functional, organism-based
Cannabinoid receptor 2 [7] = biological target: T1, Cannabinoid receptor 2 (Homo sapiens, UniProt P34972); assay: Agonist activity at LgBiT-fused CB2 receptor (unknown origin) coexpressed with miniGalphai-SmBiT in HEK293T cells assessed as G-protein recruitment by measuring complementation measured after 10 mins by NanoBiT luciferase assay; format: functional, cell-based
T1 sequence (P34972 whole entry, the tested form may be a part): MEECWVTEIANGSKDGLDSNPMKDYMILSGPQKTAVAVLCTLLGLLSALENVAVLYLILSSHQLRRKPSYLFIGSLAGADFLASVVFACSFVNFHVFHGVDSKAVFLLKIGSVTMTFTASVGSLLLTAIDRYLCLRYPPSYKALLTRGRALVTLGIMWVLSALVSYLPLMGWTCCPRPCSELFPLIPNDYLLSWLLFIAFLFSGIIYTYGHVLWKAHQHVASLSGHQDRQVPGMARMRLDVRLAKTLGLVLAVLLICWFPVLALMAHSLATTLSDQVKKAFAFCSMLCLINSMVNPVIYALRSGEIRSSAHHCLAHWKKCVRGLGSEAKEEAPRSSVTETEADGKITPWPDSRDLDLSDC

[8] = Intrinsic clearance in human liver microsomes at 10 uM measured per mg protein; format: ADME, Microsome; settings: read-out: CLH
[9] = MRT(0 to t) in BALB/c mouse at 5 mg/kg, ip; format: ADME, organism-based; settings: in vivo
[10] = Protein binding in rat plasma by dialysis method; format: ADME, cell-free; settings: read-out: PPB (converted)
[11] = Half life in BALB/c mouse at 1 mg/kg, iv; format: ADME, organism-based; settings: in vivo
[12] = Tmax in BALB/c mouse at 5 mg/kg, po; format: ADME, organism-based; settings: in vivo
[13] = Intrinsic clearance in human liver at 10 uM measured per kg body weight; format: ADME, tissue-based
CHO [14] = assay: Induction of ERK1/2 phosphorylation in Chinese hamster CHO cells at 1000 nM measured after 15 mins by western blot analysis; format: cell-based; settings: Cricetulus griseus
[15] = Intrinsic clearance in mouse liver at 10 uM measured per kg body weight; format: ADME, tissue-based
[16] = Protein binding in mouse plasma by dialysis method; format: ADME, cell-free; settings: read-out: PPB (converted)
[17] = Clearance in BALB/c mouse at 5 mg/kg, ip; format: ADME, organism-based; settings: in vivo
[18] = Half life in human liver microsomes at 10 uM; format: ADME, Microsome
Cannabinoid receptor 2 [19] = biological target: T1, Cannabinoid receptor 2; assay: Agonist activity at N-terminal HA/Flag-tagged CB2 receptor (unknown origin) expressed in CHO cells assessed as increase in Akt phosphorylation measured after 15 mins by western blot analysis; format: functional, cell-based; settings: filed as agonist, dose 12-300 nM
[20] = Metabolic stability of the compound in human liver microsomes assessed as parent compound remaining at 10 uM measured after 60 mins; format: ADME, Microsome; settings: read-out: Stability
[21] = Toxicity against C57BL/6 mouse assessed as induction of catalepsy at 20 mg/kg, ip measured within 4 hrs; format: organism-based; settings: in vivo
[22] = Clearance in BALB/c mouse at 5 mg/kg, po; format: ADME, organism-based; settings: in vivo
[23] = Metabolic stability of the compound in rat liver microsomes assessed as parent compound remaining at 10 uM measured after 60 mins; format: ADME, Microsome; settings: read-out: Stability
[24] = Cmax in BALB/c mouse at 1 mg/kg, iv; format: ADME, organism-based; set-up: dose 1 mg/kg, route iv; settings: in vivo
[25] = AUC(0 to t) in BALB/c mouse at 1 mg/kg, iv; format: ADME, organism-based; set-up: dose 1 mg/kg, route iv; settings: in vivo
Cannabinoid receptor 2 [26] = biological target: T1, Cannabinoid receptor 2; assay: Agonist activity at human CB2 receptor expressed in CHO cells assessed as inhibition of forskolin-stimulated intracellular cAMP accumulation measured after 30 mins by Glosensor assay relative to control; format: functional, cell-based; settings: filed as agonist
[27] = AUC(0 to t) in BALB/c mouse at 5 mg/kg, ip; format: ADME, organism-based; set-up: dose 5 mg/kg, route ip; settings: in vivo
[28] = Metabolic stability of the compound in mouse liver microsomes assessed as parent compound remaining at 10 uM measured after 60 mins; format: ADME, Microsome; settings: read-out: Stability
CHO [29] = assay: Agonist activity at CB2 receptor W1945.43A mutant (unknown origin) expressed in CHO cells assessed as inhibition of forskolin-stimulated intracellular cAMP accumulation measured after 30 mins by Glosensor assay; format: cell-based; settings: Homo sapiens
[30] = Clearance in BALB/c mouse at 1 mg/kg, iv; format: ADME, organism-based; settings: in vivo
Mus musculus [31] = assay: as §1, with “in” for “in hyperalgesia by measuring increase in”, “thickness” for “withdrawal threshold”, “digital caliper” for “plantar esthesiometer”; format: functional, organism-based
[32] = AUC(0 to t) in BALB/c mouse at 5 mg/kg, po; format: ADME, organism-based; set-up: dose 5 mg/kg, route po; settings: in vivo
Mus musculus [33] = assay: as §1, with “po” for “ip administered with CB2 receptor antagonist, AM630 at 10 mins prior to drug challenge and”; format: functional, organism-based
[34] = Bioavailability in BALB/c mouse at 5 mg/kg, ip; format: ADME, organism-based; settings: in vivo
[35] = Half life in BALB/c mouse at 5 mg/kg, po; format: ADME, organism-based; settings: in vivo
[36] = Cmax in BALB/c mouse at 5 mg/kg, ip; format: ADME, organism-based; set-up: dose 5 mg/kg, route ip; settings: in vivo
Homo sapiens = species on record: Homo sapiens; assay: Selectivity ratio of EC50 for agonist activity at human CB1 receptor expressed in CHO cells to EC50 for agonist activity at human CB2 receptor expressed in CHO cells; format: cell-based
[37] = Intrinsic clearance in rat liver at 10 uM measured per kg body weight; format: ADME, tissue-based
Mus musculus [38] = assay: Antinociceptive activity against carrageenan-induced inflammatory C57BL/6 mouse model assessed as reduction in paw thickness at 20 mg/kg, ip measured at 5 hrs and 2 hrs following carrageenan and compound challenge respectively by digital caliper analysis; format: functional, organism-based
[39] = system: Cannabinoid receptor 2 (Homo sapiens), P34972 [UNDEFINED MUTATION]; assay: Agonist activity at CB2 receptor F183ECL2A mutant (unknown origin) expressed in CHO cells assessed as inhibition of forskolin-stimulated intracellular cAMP accumulation measured after 30 mins by Glosensor assay; format: cell-based
Sequence of Cannabinoid receptor 2 (Homo sapiens), P34972 [UNDEFINED MUTATION] (P34972 whole entry, looked up, stated change not applied): as the sequence (P34972 whole entry, the tested form may be a part) above

CHO [40] = assay: Agonist activity at CB2 receptor F872.57A mutant (unknown origin) expressed in CHO cells assessed as inhibition of forskolin-stimulated intracellular cAMP accumulation measured after 30 mins by Glosensor assay; format: cell-based; settings: Homo sapiens
[41] = MRT(0 to t) in BALB/c mouse at 5 mg/kg, po; format: ADME, organism-based; settings: in vivo
[42] = Tmax in BALB/c mouse at 1 mg/kg, iv; format: ADME, organism-based; settings: in vivo
[43] = Half life in rat liver microsomes at 10 uM; format: ADME, Microsome
Cannabinoid receptor 2 [44] = biological target: T1, Cannabinoid receptor 2; assay: Agonist activity at N-terminal HA/Flag-tagged CB2 receptor (unknown origin) expressed in CHO cells assessed as increase in ERK1/2 phosphorylation measured after 15 mins by western blot analysis; format: functional, cell-based; settings: filed as agonist, dose 12-300 nM
[45] = AUC(0 to infinity) in BALB/c mouse at 20 mg/kg, po; format: ADME, organism-based; set-up: dose 20 mg/kg, route po; settings: in vivo
[46] = Half life in mouse liver microsomes at 10 uM; format: ADME, Microsome
[47] = Half life in BALB/c mouse at 20 mg/kg, po; format: ADME, organism-based; settings: in vivo
CHO [48] = assay: Induction of Akt phosphorylation in Chinese hamster CHO cells at 1000 nM measured after 15 mins by western blot analysis; format: cell-based; settings: Cricetulus griseus
[49] = MRT(0 to t) in BALB/c mouse at 1 mg/kg, iv; format: ADME, organism-based; settings: in vivo
Cannabinoid receptor 2 [50] = biological target: T1, Cannabinoid receptor 2; assay: Agonist activity at human CB2 receptor expressed in CHO cells assessed as inhibition of forskolin-stimulated intracellular cAMP accumulation measured after 30 mins by Glosensor assay; format: functional, cell-based
[51] = Tmax in BALB/c mouse at 5 mg/kg, ip; format: ADME, organism-based; settings: in vivo
[52] = Half life in BALB/c mouse at 5 mg/kg, ip; format: ADME, organism-based; settings: in vivo
Cannabinoid receptor 2 [53] = biological target: T1, Cannabinoid receptor 2; assay: Agonist activity at N-terminal HA/Flag-tagged CB2 receptor (unknown origin) expressed in CHO cells assessed as increase in ERK1/2 phosphorylation at 300 nM measured after 15 mins in presence of CB2 receptor antagonist, AM630 by western blot analysis; format: functional, cell-based
Cannabinoid receptor 2 [54] = biological target: T1, Cannabinoid receptor 2; assay: Agonist activity at LgBiT-fused CB2 receptor (unknown origin) coexpressed with miniGalphai-SmBiT in HEK293T cells assessed as G-protein recruitment measured after 10 mins in presence of CB2 receptor antagonist, AM630 by NanoBiT luciferase assay; format: functional, cell-based
Cannabinoid receptor 1 = Cannabinoid receptor 1 (Homo sapiens, UniProt P21554); assay: Agonist activity at human CB1 receptor expressed in CHO cells assessed as inhibition of forskolin-stimulated intracellular cAMP accumulation measured after 30 mins by Glosensor assay; format: cell-based
Sequence of Cannabinoid receptor 1 (P21554 whole entry): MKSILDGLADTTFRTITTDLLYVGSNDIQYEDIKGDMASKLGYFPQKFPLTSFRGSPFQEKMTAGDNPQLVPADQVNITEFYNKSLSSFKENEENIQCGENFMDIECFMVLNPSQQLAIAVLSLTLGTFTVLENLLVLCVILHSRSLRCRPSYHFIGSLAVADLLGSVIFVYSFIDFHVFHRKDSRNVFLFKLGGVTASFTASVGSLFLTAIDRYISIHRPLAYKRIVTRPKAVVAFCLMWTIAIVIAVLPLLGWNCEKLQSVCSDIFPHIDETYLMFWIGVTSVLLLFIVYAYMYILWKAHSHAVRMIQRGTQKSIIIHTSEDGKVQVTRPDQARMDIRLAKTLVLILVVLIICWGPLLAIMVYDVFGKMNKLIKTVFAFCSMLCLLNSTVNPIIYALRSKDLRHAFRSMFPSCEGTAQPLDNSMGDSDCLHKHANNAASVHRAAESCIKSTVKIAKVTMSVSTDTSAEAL

Mus musculus [55] = assay: Antinociceptive activity against ip dosed carrageenan-induced inflammatory C57BL/6 mouse model assessed as reduction in hyperalgesia by measuring increase in paw withdrawal threshold measured at 5 hrs and 2 hrs following carrageenan and compound challenge respectively by plantar esthesiometer analysis; format: functional, organism-based; settings: dose 5-20 mg/kg
Cannabinoid receptor 2 [56] = biological target: T1, Cannabinoid receptor 2; assay: Agonist activity at N-terminal HA/Flag-tagged CB2 receptor (unknown origin) expressed in CHO cells assessed as increase in Akt phosphorylation at 300 nM measured after 15 mins in presence of CB2 receptor antagonist, AM630 by western blot analysis; format: functional, cell-based
[57] = Intrinsic clearance in mouse liver microsomes at 10 uM measured per mg protein; format: ADME, Microsome; settings: read-out: CLH

bioavailability [1]: 80.5% | fraction unbound [3]: 0.011 | microsomal CLint at 10 µM [4]: 130 µL/min/mg | Cmax [5]: 621 ng/mL | EC50 (Cannabinoid receptor 2 [7]): 84.7 nM | microsomal CLint at 10 µM [8]: 23 µL/min/mg | MRT last [9]: 103 min | fraction unbound [10]: 0.074 | half-life [11]: 70.8 min | Tmax [12]: 25.2 min | CLH [13]: 28.8 mL/min/kg | CLH [15]: 415 mL/min/kg | fraction unbound [16]: 0.032 | CL/F [17]: 45.8 mL/min/kg | half-life at 10 µM [18]: 60.3 min | Activity (Cannabinoid receptor 2 [19]): Dose-Dependent Effect | remaining at 1 h, 10 µM [20]: 46.3% | CL/F [22]: 50.8 mL/min/kg | remaining at 1 h, 10 µM [23]: 1.83% | Cmax [24]: 615 ng/mL | AUC(0-t) [25]: 413 ng·h/mL | Emax (Cannabinoid receptor 2 [26]): 87% | AUC(0-t) [27]: 1830 ng·h/mL | remaining at 1 h, 10 µM [28]: 3.15% | clearance [30]: 41.2 mL/min/kg | AUC(0-t) [32]: 1660 ng·h/mL | bioavailability [34]: 88.5% | half-life [35]: 42 min | Cmax [36]: 1080 ng/mL | CLH [37]: 232 mL/min/kg | Activity [39]: inactive | MRT last [41]: 128 min | Tmax [42]: 4.8 min | half-life at 10 µM [43]: 10.7 min | Activity (Cannabinoid receptor 2 [44]): Dose-Dependent Effect | AUC(0-inf) [45]: 18000 ng·h/mL | half-life at 10 µM [46]: 13.1 min | half-life [47]: 224 min | MRT last [49]: 49.8 min | EC50 (Cannabinoid receptor 2 [50]): 21 nM | Tmax [51]: 19.8 min | half-life [52]: 56.4 min | Activity (Cannabinoid receptor 2 [53]): inactive | Activity (Cannabinoid receptor 2 [54]): inactive | Activity (Cannabinoid receptor 2 [56]): inactive | microsomal CLint at 10 µM [57]: 106 µL/min/mg
SMILES: O=C1CC(c2nc(-c3ccc(F)c4cn[nH]c34)no2)CCCN1c1ccc(F)cc1 (centres undefined)
Activity [2]: Non-Toxic | Activity (Mus musculus [6]): inactive | Activity (CHO [14]): inactive | Activity [21]: Non-Toxic | Activity (CHO [29]): inactive | Activity (Mus musculus [31]): inactive | Activity (Mus musculus [33]): Active | Ratio EC50 (Homo sapiens): > 1430 | Activity (Mus musculus [38]): Active | Activity (CHO [40]): inactive | Activity (CHO [48]): inactive | EC50 (Cannabinoid receptor 1): > 30000 nM | Activity (Mus musculus [55]): Dose-Dependent Effect
